From ChEMBL document CHEMBL1201862, “PubChem BioAssay data set” (2004)
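Results reflect a 48-hour exposure of cells in 96-well plates to compound at five concentrations. Abbreviation: GI50, concentration required for 50% inhibition of growth.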 Calls of active or inactive are those of the source. Cut-off read from the data, not from the text of the source: active = GI50 up to about 1.1 µM and inactive = higher.

Tests used:
Test in all cases: NCI-60 cell line screen, 48 h
UO-31 = test system: UO-31
HCT-15 = test system: HCT-15
OVCAR-4 = test system: OVCAR-4
MOLT-4 = test system: MOLT-4
HCC 2998 = test system: HCC 2998
786-0 = test system: 786-0
HOP-92 = test system: HOP-92
UACC-257 = test system: UACC-257
ACHN = test system: ACHN
CAKI-1 = test system: CAKI-1
RPMI-8226 = test system: RPMI-8226
OVCAR-3 = test system: OVCAR-3
NCI-H23 = test system: NCI-H23
KM12 = test system: KM12
LOX IMVI = test system: LOX IMVI
CCRF-CEM = test system: CCRF-CEM
A498 = test system: A498

| Structure (SMILES) | GI50 (UO-31) | GI50 (HCT-15) [µM] | GI50 (OVCAR-4) | GI50 (MOLT-4) | GI50 (HCC 2998) | GI50 (786-0) | GI50 (HOP-92) | GI50 (UACC-257) | GI50 (ACHN) | GI50 (CAKI-1) | GI50 (RPMI-8226) | GI50 (OVCAR-3) | GI50 (NCI-H23) | GI50 (KM12) | GI50 (LOX IMVI) | GI50 (CCRF-CEM) | GI50 (A498) |
| --- | --- | --- | --- | --- | --- | --- | --- | --- | --- | --- | --- | --- | --- | --- | --- | --- | --- |
| O=C(COc1ccccc1Cl)N1N=C(c2ccccc2)CC1(O)c1ccccc1 (stereo not given) | 10.1 µM (inactive) | 12.9 | 11.3 µM (inactive) | 7.43 µM (inactive) | 15.9 µM (inactive) | 17.3 µM (inactive) | 22.3 µM (inactive) | 20.7 µM (inactive) | 17.1 µM (inactive) | 29 µM (inactive) | 8.17 µM (inactive) | 15.9 µM (inactive) | 12.1 µM (inactive) | 21.2 µM (inactive) | 16.7 µM (inactive) | – | – |
| Cc1cc(C(O)CCCc2ccccc2)cc(C)c1O (stereo not given) | 15.4 µM (inactive) | 45.9 | – | 19.4 µM (inactive) | 74.1 µM (inactive) | 40.6 µM (inactive) | – | 25.8 µM (inactive) | 24.2 µM (inactive) | – | 24.1 µM (inactive) | 31.1 µM (inactive) | 39.8 µM (inactive) | 29.6 µM (inactive) | 34 µM (inactive) | 27.7 µM (inactive) | 24.5 µM (inactive) |
| O=C(Nc1nc2ncn(CCOC(=O)c3ccccc3)c2c(=S)[nH]1)c1ccccc1 | 61.7 µM (inactive) | > 100 | 23.5 µM (inactive) | – | > 100 µM (inactive) | 62.5 µM (inactive) | 42.7 µM (inactive) | 55.8 µM (inactive) | > 100 µM (inactive) | > 100 µM (inactive) | > 100 µM (inactive) | 43.1 µM (inactive) | – | > 100 µM (inactive) | > 100 µM (inactive) | > 100 µM (inactive) | 95.7 µM (inactive) |
| Nc1ccc(C2=N/C(=C\c3cccc(N)c3)C(=O)O2)cc1 | > 100 µM (inactive) | > 100 | > 100 µM (inactive) | > 100 µM (inactive) | > 100 µM (inactive) | > 100 µM (inactive) | > 100 µM (inactive) | – | > 100 µM (inactive) | > 100 µM (inactive) | – | > 100 µM (inactive) | > 100 µM (inactive) | > 100 µM (inactive) | – | 67.3 µM (inactive) | – |
| CN(C)CCNC(=O)c1cccc2cc3c(Cl)cccc3nc12 | 2.55 µM (inactive) | 1.19 | 2.02 µM (inactive) | 0.22 µM (active) | 1.27 µM (inactive) | 1.12 µM (active) | 2.07 µM (inactive) | 1.75 µM (inactive) | 0.413 µM (active) | 3.63 µM (inactive) | 1.64 µM (inactive) | 1.82 µM (inactive) | 1.38 µM (inactive) | 1.31 µM (inactive) | 0.583 µM (active) | – | 1.35 µM (inactive) |
| CCOC(=O)C1(Cc2ccc3ccccc3c2)CCCCCN1 (stereo not given) | 20.3 µM (inactive) | 18.7 | 31.4 µM (inactive) | 4.91 µM (inactive) | 19.1 µM (inactive) | 17.3 µM (inactive) | 13.9 µM (inactive) | – | 58.2 µM (inactive) | 9.23 µM (inactive) | 5.6 µM (inactive) | 45.3 µM (inactive) | 30 µM (inactive) | – | 20.1 µM (inactive) | – | – |
| CC1=C(C)C(=O)c2c(cc3ccccn23)C1=O | 24.3 µM (inactive) | 14.4 | 27.8 µM (inactive) | 24.2 µM (inactive) | 15.5 µM (inactive) | 27.9 µM (inactive) | – | – | 32.2 µM (inactive) | – | 15.8 µM (inactive) | 14.6 µM (inactive) | 10.2 µM (inactive) | 16.6 µM (inactive) | 5.14 µM (inactive) | 27 µM (inactive) | 21.2 µM (inactive) |
| c1ccc([P+](c2ccccc2)(c2ccccc2)C2Sc3ccccc3S2)cc1 | 16.1 µM (inactive) | – | 18.9 µM (inactive) | – | 15.7 µM (inactive) | 17.3 µM (inactive) | > 100 µM (inactive) | 16.4 µM (inactive) | 17.3 µM (inactive) | 14.6 µM (inactive) | 16.7 µM (inactive) | 14.5 µM (inactive) | 10.5 µM (inactive) | 21.9 µM (inactive) | 11.4 µM (inactive) | 13.8 µM (inactive) | 28.1 µM (inactive) |
| CCOC(=O)c1cn(CC)c2cc3c(cc2c1=O)SCS3 | > 100 µM (inactive) | > 100 | > 100 µM (inactive) | > 100 µM (inactive) | > 100 µM (inactive) | > 100 µM (inactive) | > 100 µM (inactive) | > 100 µM (inactive) | > 100 µM (inactive) | > 100 µM (inactive) | > 100 µM (inactive) | > 100 µM (inactive) | > 100 µM (inactive) | > 100 µM (inactive) | > 100 µM (inactive) | > 100 µM (inactive) | – |
| COc1ccccc1C(O)(c1ccccc1)C(O)(c1ccccc1)c1ccccc1OC (stereo not given) | > 100 µM (inactive) | > 100 | > 100 µM (inactive) | 48.1 µM (inactive) | > 100 µM (inactive) | > 100 µM (inactive) | 20.3 µM (inactive) | > 100 µM (inactive) | > 100 µM (inactive) | – | > 24.4 µM (inactive) | > 100 µM (inactive) | > 100 µM (inactive) | > 100 µM (inactive) | > 100 µM (inactive) | > 100 µM (inactive) | > 100 µM (inactive) |
| CCCCCCCCCCCCCCCCc1c(O)nc(NC#N)nc1C(=O)OC | > 25 µM (inactive) | > 25 | > 25 µM (inactive) | > 25 µM (inactive) | > 25 µM (inactive) | > 25 µM (inactive) | > 25 µM (inactive) | > 25 µM (inactive) | > 25 µM (inactive) | – | > 25 µM (inactive) | > 25 µM (inactive) | > 25 µM (inactive) | > 25 µM (inactive) | > 25 µM (inactive) | > 25 µM (inactive) | > 25 µM (inactive) |
| CCOC(=O)N1Cc2ccoc2C1 | > 100 µM (inactive) | > 100 | > 100 µM (inactive) | > 100 µM (inactive) | > 100 µM (inactive) | > 100 µM (inactive) | > 100 µM (inactive) | > 100 µM (inactive) | > 100 µM (inactive) | – | > 100 µM (inactive) | > 100 µM (inactive) | > 100 µM (inactive) | > 100 µM (inactive) | > 100 µM (inactive) | > 100 µM (inactive) | – |
| COc1cc([C@@H]2c3cc4c(cc3[C@@H](OC(=O)c3cccc(N)c3)C3COC(=O)[C@@H]32)OCO4)cc(OC)c1O (stereo not given in full) | 5.26 µM (inactive) | 13.3 | 42.1 µM (inactive) | 1.91 µM (inactive) | 9.93 µM (inactive) | 2.49 µM (inactive) | – | 5.69 µM (inactive) | 1.96 µM (inactive) | 1.84 µM (inactive) | 3.86 µM (inactive) | 34.6 µM (inactive) | 1.19 µM (inactive) | 17.8 µM (inactive) | 4.47 µM (inactive) | 2.18 µM (inactive) | 0.649 µM (active) |
| CC1CN1c1c(C(=O)/C=C/c2ccc(Cl)cc2)c(-c2ccccc2)nn(C)c1=O (stereo not given) | 6.44 µM (inactive) | 1.82 | 2.61 µM (inactive) | 2.24 µM (inactive) | 1.99 µM (inactive) | 2.81 µM (inactive) | > 10 µM (inactive) | 3.67 µM (inactive) | 2.33 µM (inactive) | 4.74 µM (inactive) | – | 2.6 µM (inactive) | 2.77 µM (inactive) | 3.3 µM (inactive) | 2.08 µM (inactive) | 2.24 µM (inactive) | 4.08 µM (inactive) |
